From US8465788B2, “Arabinoxylans for modulating the barrier function of the intestinal surface” (BioActor B.V., priority 2008, dated 2013)

Tests used:
[1] = tested on: fecal microbial community; assay: SHIME in vitro gastrointestinal model: short chain fatty acid (A, P, B) ratios; assay type: cell-based, human; conditions: for A ratio (A/(A + P + B)), Ascending colon / A ratio, Descending colon / A ratio, Transverse colon / B ratio, Ascending colon / B ratio, Descending colon / B ratio, Transverse colon / P ratio, Ascending colon / P ratio, Descending colon / P ratio, Transverse colon: TWINSHIME
Description: In Vitro Gastrointestinal Model—the Simulator of the Human Intestinal Microbial Ecosystem (SHIME)
The reactor setup was adapted from the SHIME, representing the gastrointestinal tract of the adult human, as described by Molly et al. (Molly, Woestyne et al. 1993). The SHIME consists of a succession of five reactors simulating the different parts of the human gastrointestinal tract. The first two reactors are of the fill-and-draw principle to simulate different steps in food uptake and digestion, with peristaltic pumps adding a defined amount of SHIME feed (140 mL 3×/day) and pancreatic and bile liquid (60 mL 3×/day), respectively to the stomach (V1) and duodenum (V2) compartment and emptying the respective reactors after specified intervals. The last three compartments are continuously stirred reactors with constant volume and pH control. Retention time and pH of the different vessels are chosen in order to resemble in vivo conditions in the different parts of the gastrointestinal tract. The overall residence time of the last three vessels, simulating the large intestine, is 76 h. Upon inoculation with fecal microbiota, these reactors simulate the ascending (V3), transverse (V4) and descending (V5) colon. Inoculum preparation, retention time, pH, temperature settings and reactor feed composition were previously described by Possemiers et al. (Possemiers, Verthe et al. 2004). In the comparison with of AX with inulin, two systems with identical environmental conditions (identical pH and temperature control) were run in parallel.
For the evaluation of the 2 prebiotics, the colon compartments of the SHIME reactors were first inoculated with an isolated fecal microbial community of a selected healthy volunteer. The SHIME reactor was operated under nominal conditions to stabilize the microbial community and let it adapt its metabolic activity and community composition to the conditions prevailing in the respective colon compartments. This stabilization period lasted for 3 weeks.
During the basal period, the SHIME reactor was operated under nominal conditions. Parameters such as short chain fatty acid (SCFA) production and ammonium production were determined 3 times/week. The results of these analyses served as the background values to be used to compare the measured parameters from the treatment period. The basal period lasted 2 weeks.
During the treatment period, the SHIME reactor was operated under nominal conditions, but with a modified diet containing a lower amount of starch in the medium compared to that of the basal period. In parallel, the ascending colon compartment of the first SHIME received inulin, whereas the second SHIME received AX. Both compounds were added in low doses of 1.5 g/d. SCFA and ammonium production were determined 3 times/week. This treatment period typically lasts for 3 weeks.
During the washout period, the SHIME reactor was operated under nominal conditions, with the initial diet. SCFA and ammonium production were determined 3 times/week. Analysis of these parameters allowed to assess whether possible changes from the treatment period normalize again to the levels of the basal period.
As acetate (A), propionate (P) and butyrate (B) are the main fatty acids produced by intestinal bacteria, the results are expressed as the ratio of each fatty acid to the sum of the 3 fatty acids.

bifidobacteria = assay: DGGE fingerprint of the bifidobacterial community in the cecum of human-microbiota associated rats; assay type: in vivo, rat; conditions: 10% in diet, three weeks
Description: FIG. 3 DGGE (Denaturing Gradient Gel Electrophoresis) fingerprint profiles of the community of bifidobacteria in the cecum of three groups of human-microbiota associated rats (n=8/group) treated for 3 weeks with a control diet, inulin (10%) or AX (10%). The profiles were obtained after amplification of the bifidobacterial community using group-specific PCR primers.
Three groups of eight rats with human associated microbiotia were used in the experiment: • Control • Inulin • AX
During three weeks animals were treated with either 10% inulin, AX or a control diet (=5% sugar+5% cornstarch) in order to compare the prebiotic effects of both oligosaccharides. At the end of the three weeks, the animals were euthanized.
In addition to this, the composition of the bifidobacterial community in the cecum was monitored by Denaturing Gradient Gel Electrophoresis (DGGE) (FIG. 3). […] Bifidobacterium longum is one of most important inhabitants in the human body. This bacterium is very helpful because it maintains a normal digestive tract, inhibits the growth of harmful bacteria, and also boosts the immune system (Reinert, Birgit. “Friendly tenants in the human gut: The genome of B. longum”. 2002. Genome News Network).

intestinal bacteria = assay: Prebiotic Index (gut lumen) and Prebiotic Attachment Index (gut wall mucus) in TWINSHIME; assay type: cell-based, human; conditions: from day 23, TWINSHIME
Experimental: FIG. 4 Prebiotic Index (PI) and Prebiotic Attachment Index (PAI) before, during and after treatment with respectively inulin and AX. The X-axis indicates experiment days during the TWINSHIME run. Inulin or AX were administered to the TWINSHIME from day 2 until day 23.
In addition to the above-mentioned measurements, experiments were performed to quantify the attachment of intestinal bacteria to the mucus layer at the gut wall. As attachment to the gut wall is the first stage of interaction between bacteria and the human host (e.g. immunomodulation, pathogenesis), characterization of the microbial ecology at the site of the gut wall and assessment of changes in this community due to a prebiotic treatment is very important to evaluate the final health effects of a prebiotic treatment. Finally, the effect of the prebiotic treatment with inulin or AX on the composition of the microbial community in both the gut lumen and at the gut wall can be expressed quantitatively in specific indices.
The Prebiotic Index (PI) describes the increase in the gut lumen in beneficial bacteria, relative to harmful bacteria due to the prebiotic treatment. PI=(Bif/Total)+(Lac/Total)−(Ecol/Total)−(Clos/Total) […]
For both indices, an increase in the quantitative value is evaluated as positive, with the degree of increase as a parameter for success of the prebiotic treatment (FIG. 4).

inulin
prebiotic effect (relative increase in P and B compared to A) in the colon compartments ([1]; SHIME, 1.5 g/d): only minor effects were observed in one colon compartment | A ratio (A/(A + P + B)), Ascending colon ([1]; treatment period, 1.5 g/d): 0.45 | A ratio, Descending colon ([1]; treatment period, 1.5 g/d): 0.48 | A ratio, Transverse colon ([1]; treatment period, 1.5 g/d): 0.43 | B ratio, Ascending colon ([1]; treatment period, 1.5 g/d): 0.27 | B ratio, Descending colon ([1]; treatment period, 1.5 g/d): 0.24 | B ratio, Transverse colon ([1]; treatment period, 1.5 g/d): 0.26 | P ratio, Ascending colon ([1]; treatment period, 1.5 g/d): 0.29 | P ratio, Descending colon ([1]; treatment period, 1.5 g/d): 0.28 | P ratio, Transverse colon ([1]; treatment period, 1.5 g/d): 0.31 | A ratio (A/(A + P + B)), Ascending colon ([1]; wash-out period): 0.45 | A ratio, Descending colon ([1]; wash-out period): 0.53 | A ratio, Transverse colon ([1]; wash-out period): 0.44 | B ratio, Ascending colon ([1]; wash-out period): 0.20 | B ratio, Descending colon ([1]; wash-out period): 0.19 | B ratio, Transverse colon ([1]; wash-out period): 0.21 | P ratio, Ascending colon ([1]; wash-out period): 0.35 | P ratio, Descending colon ([1]; wash-out period): 0.28 | P ratio, Transverse colon ([1]; wash-out period): 0.35 | composition of the bifidobacterial community in the cecum (DGGE) (bifidobacteria): little changes | Prebiotic Attachment Index (PAI) after stopping the administration (intestinal bacteria): returned back to baseline | Prebiotic Index (PI) after stopping the administration (intestinal bacteria): returned back to baseline
